Results as given in ChEMBL document CHEMBL3861981 (J Med Chem, 2016).

Key:
[1] = test system: Salmonella typhimurium; test: Genotoxicity in Salmonella typhimurium in absence of S9 fraction by Ames test; assay type: toxicity, organism-based; conditions: salmonella enterica subsp. enterica serovar typhimurium
[2] = Inhibition of recombinant full length HCV genotype 1a H77 NS3/4A protease preincubated for 30 mins followed by substrate addition measured by FRET assay; set-up: species or system Hepatitis C virus (isolate H77)
[3] = Cardiotoxicity in dog assessed as effect on sinoatrial node recovery time at 30 to 100 mg/kg administered as single dose by electrophysiology assay; assay type: toxicity, organism-based, Canis lupus familiaris; conditions: in vivo
[4] = test system: Hepatitis C virus; test: Antiviral activity against HCV genotype 1a H77 in HCV replicon cells assessed as reduction in viral RNA replication by luciferase reporter gene assay
[5] = species: Homo sapiens; test: Inhibition of sodium channel (unknown origin) at 10 uM at 4 Hz by patch clamp assay
[6] = AUC in cynomolgus monkey plasma at 10 mg/kg administered via oral gavage measured up to 24 hrs post dose by LC/MS/MS analysis; assay type: ADME, organism-based, Macaca fascicularis; set-up: dose 10 mg/kg, time < 24 hr, route oral; conditions: plasma
[7] = Cardiotoxicity in dog assessed as prolongation of QTcf interval at 30 to 100 mg/kg administered as single dose by electrophysiology assay; assay type: toxicity, organism-based, Canis lupus familiaris; conditions: in vivo
[8] = Half life in cynomolgus monkey plasma at 3 mg/kg, iv administered as 5 mins infusion by LC/MS/MS analysis; assay type: ADME, organism-based, Macaca fascicularis
[9] = Oral bioavailability in cannulated Sprague-Dawley rat plasma at 15 mg/kg administered via gavage measured up to 24 hrs post dose by LC/MS/MS analysis; assay type: ADME, organism-based
[10] = Inhibition of recombinant full length HCV genotype 5a SA13 NS3/4A protease preincubated for 30 mins followed by substrate addition measured by FRET assay; set-up: species or system Hepatitis C virus SA13
[11] = Clearance in cynomolgus monkey plasma at 3 mg/kg, iv administered as 5 mins infusion measured up to 24 hrs post dose by LC/MS/MS analysis; assay type: ADME, organism-based, Macaca fascicularis
[12] = Inhibition of recombinant full length HCV genotype 2b HC-J8 NS3 protease in genotype 2a replicon cells by luciferase reporter gene assay; assay type: cell-based, Hepatitis C virus subtype 2b; conditions: Hepatitis C virus
[13] = Inhibition of recombinant full length HCV genotype 2a HC-J6 NS3/4A protease preincubated for 30 mins followed by substrate addition measured by FRET assay; set-up: species or system Hepatitis C virus subtype 2a
[14] = Inhibition of recombinant full length HCV genotype 4a ED43 NS3 protease in genotype 1b con1 replicon cells by luciferase reporter gene assay; conditions: Hepatitis C virus
[15] = Inhibition of recombinant full length HCV genotype 1b J4L6S NS3/4A protease preincubated for 30 mins followed by substrate addition measured by FRET assay; set-up: species or system Hepatitis C virus subtype 1b
[16] = Cardiotoxicity in rabbit heart assessed as change in heart rate at 10 uM perfused for 60 mins measured every 10 mins during perfusion by electrophysiology method relative to control; assay type: toxicity, tissue-based, Oryctolagus cuniculus; conditions: 1 h
[17] = Half life in human liver microsomes; assay type: ADME
[18] = Drug uptake in rabbit heart atrium measured after 60 mins; assay type: ADME, Oryctolagus cuniculus, Cardiac atrium; conditions: read-out: Drug uptake
[19] = Cardiotoxicity in anesthetized rabbit assessed as effect on PR interval at 30 mg/kg, iv administered as 10 mins infusion measured up to 60 mins post dose by electrophysiology assay; assay type: toxicity, organism-based, Oryctolagus cuniculus; conditions: in vivo
[20] = Cardiotoxicity in dog assessed as prolongation of QTcv interval at 30 to 100 mg/kg administered as single dose by electrophysiology assay; assay type: toxicity, organism-based, Canis lupus familiaris; conditions: in vivo
[21] = Plasma concentration in rabbit at 30 mg/kg, iv administered as 10 mins infusion measured after 60 mins; assay type: ADME, organism-based, Oryctolagus cuniculus
[22] = Cardiotoxicity in dog assessed as effect on heart rate at 30 to 100 mg/kg administered as single dose by electrophysiology assay; assay type: toxicity, organism-based, Canis lupus familiaris; conditions: in vivo
[23] = Half life in Beagle dog plasma at 1 mg/kg, iv administered as 5 mins infusion by LC/MS/MS analysis; assay type: ADME, organism-based, Canis lupus familiaris
[24] = Cardiotoxicity in dog assessed as effect on PR interval at 30 to 100 mg/kg administered as single dose by electrophysiology assay; assay type: toxicity, organism-based, Canis lupus familiaris; conditions: in vivo
[25] = Cytotoxicity against human HepG2 cells assessed as decrease in cell viability
[26] = Drug uptake in cannulated Sprague-Dawley rat liver at 15 mg/kg administered via oral gavage measured at 24 hrs post dose by LC/MS/MS analysis; assay type: ADME, organism-based; conditions: read-out: Drug uptake
[27] = test system: Rattus norvegicus; test: Toxicity in rat at 30 to 300 mg/kg administered as single dose; assay type: organism-based; conditions: in vivo
[28] = Inhibition of recombinant full length HCV genotype 3a S52 NS3/4A protease preincubated for 30 mins followed by substrate addition measured by FRET assay; set-up: species or system Hepatitis C virus S52
[29] = Inhibition of recombinant full length HCV genotype 2b HC-J8 NS3/4A protease preincubated for 30 mins followed by substrate addition measured by FRET assay; set-up: species or system Hepatitis C virus subtype 2b
[30] = Cardiotoxicity in anesthetized rabbit assessed as effect on QRS interval at 30 mg/kg, iv administered as 10 mins infusion measured up to 60 mins post dose by electrophysiology assay; assay type: toxicity, organism-based, Oryctolagus cuniculus; conditions: in vivo
[31] = Inhibition of recombinant full length HCV genotype 6a HK-6A NS3/4A protease preincubated for 30 mins followed by substrate addition measured by FRET assay; set-up: species or system Hepatitis C virus subtype 6a
[32] = AUC in cannulated Sprague-Dawley rat plasma at 15 mg/kg administered via oral gavage measured up to 24 hrs post dose by LC/MS/MS analysis; assay type: ADME, organism-based; set-up: dose 15 mg/kg, time < 24 hr, route oral
[33] = Cardiotoxicity in anesthetized rabbit assessed as prolongation of QTcf interval at 30 mg/kg, iv administered as 10 mins infusion by electrophysiology assay; assay type: toxicity, organism-based, Oryctolagus cuniculus; conditions: in vivo
[34] = Cytotoxicity against human HuH7 cells assessed as decrease in cell viability
[35] = test system: Hepatitis C virus; test: Antiviral activity against HCV genotype 2a JHF-1 in HCV replicon cells assessed as reduction in viral RNA replication by luciferase reporter gene assay; conditions: genotype 2a JFH-1
[36] = Oral bioavailability in Beagle dog plasma at 3 mg/kg administered via gavage measured up to 24 hrs post dose by LC/MS/MS analysis; assay type: ADME, organism-based, Canis lupus familiaris; conditions: beagle, plasma
[37] = AUC in Beagle dog plasma at 3 mg/kg administered via oral gavage measured up to 24 hrs post dose by LC/MS/MS analysis; assay type: ADME, organism-based, Canis lupus familiaris; set-up: dose 3 mg/kg, time < 24 hr, route oral
[38] = Half life in cannulated Sprague-Dawley rat plasma at 5 mg/kg, iv administered as 10 mins infusion by LC/MS/MS analysis; assay type: ADME, organism-based
[39] = Cytotoxicity against human HeLa cells assessed as decrease in cell viability
[40] = Inhibition of recombinant full length HCV genotype 3a S52 NS3 protease in genotype 2a replicon cells by luciferase reporter gene assay; assay type: cell-based; conditions: Hepatitis C virus
[41] = biological target: T1, Neutrophil elastase (Homo sapiens, UniProt P08246); test: Inhibition of human leukocyte elastase
T1 sequence (P08246 whole entry): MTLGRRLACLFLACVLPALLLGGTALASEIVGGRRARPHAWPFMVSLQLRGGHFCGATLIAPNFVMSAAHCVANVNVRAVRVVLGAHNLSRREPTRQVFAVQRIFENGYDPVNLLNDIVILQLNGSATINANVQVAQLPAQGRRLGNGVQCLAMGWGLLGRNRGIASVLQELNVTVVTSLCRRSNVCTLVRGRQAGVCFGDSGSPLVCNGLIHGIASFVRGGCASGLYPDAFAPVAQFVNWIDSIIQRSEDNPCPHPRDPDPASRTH

[42] = Toxicity in dog at 20 to 200 mg/kg administered as single dose; assay type: organism-based, Canis lupus familiaris; conditions: in vivo

- IC50 [2]: 1.5 nM
- EC50 [4]: 4.5 nM
- inhibition [5]: 46.4%
- AUC at 24 h [6]: 4.4 µM·h
- half-life [8]: 6.1 h
- bioavailability [9]: 86.4%
- IC50 [10]: 4.1 nM
- clearance [11]: 9.4 mL/min/kg
- EC50 [12]: 562 nM
- IC50 [13]: 38 nM
- EC50 [14]: 2.8 nM
- IC50 [15]: 1.6 nM
- half-life [17]: 1.08 h
- concentration at 1 h [18]: 204 µM
- concentration at 1 h [21]: 253 µM
- half-life [23]: 5.1 h
- concentration at 24 h [26]: 51 µM
- IC50 [28]: 1400 nM
- IC50 [29]: 220 nM
- IC50 [31]: 3.4 nM
- AUC at 24 h [32]: 21.1 µM·h
- EC50 [35]: 136 nM
- bioavailability [36]: 57.5%
- AUC at 24 h [37]: 8.3 µM·h
- half-life [38]: 8.6 h
- EC50 [40]: 1650 nM
- IC50 [41]: 21000 nM
Structure (SMILES): COc1cnc(O[C@@H]2C[C@@H](C(=O)N[C@]3(C(=O)NS(=O)(=O)C4CC4)C[C@H]3C3CC3)N(C(=O)[C@@H](NC(=O)O[C@H](C)C(F)(F)F)C3CCCCC3)C2)c2cc(Cl)ccc12
- Activity [1]: Non-Toxic
- Activity [3]: Non-Toxic
- Activity [7]: Non-Toxic
- Activity [16]: -16%
- Activity [19]: Non-Toxic
- Activity [20]: Non-Toxic
- Activity [22]: Non-Toxic
- Activity [24]: Non-Toxic
- CC50 [25]: 8000 to 14000 nM
- Activity [27]: Non-Toxic
- Activity [30]: Non-Toxic
- Activity [33]: Toxic
- CC50 [34]: 8000 to 14000 nM
- CC50 [39]: 8000 to 14000 nM
- Activity [42]: Non-Toxic
